Results on 15 compounds are retold here after patent US12465590B2, “Oxalamido-substituted tricyclic inhibitors of hepatitis b virus” (priority 2019, dated 2025).

SMILES strings stand for the structures.

One test has as its system HBV. Description: HBV inhibition assay in HepAD38 cells (extracellular HBV DNA by direct qPCR). Format: cell-based, HBV genotype D subtype ayw. The following applies: 96 hours, read-out: HBV inh EC50. The text has this: HepAD38 cell line (Ladner et al., Antimicrob Agents Chemother, 1997, 41, 1715-20) was used for HBV inhibition assays. HepAD38 is a subclone, derived from hepatoblastoma cell line HepG2 (ATCC® Number: HB-8065), that expresses HBV genome (genotype D subtype ayw) under the transcriptional control of a tetracycline-responsive promoter in a TET-OFF system: addition of doxycycline, an antibiotic belonging to the class of tetracycline, suppresses HBV replication, while its removal switches on the process allowing HBV viral particles release in the cell supernatant. HepAD38 cell line is maintained in DMEM/F12, supplemented with 10% of fetal bovine serum, 1% of glutamine, 1% of penicillin/streptomycin, 0.4 mg/ml G418 and 0.3 ug/ml tetracycline. For the HBV inhibition assay, doxycycline-free medium is used in order to allow virion production.
HBV inhibition activity in vitro was performed in 96 multiwell plates. During the initial (primary) screening, compounds were first tested in triplicates at concentrations of 0.02 μM, 0.1 μM, 0.5 μM and 1 μM. For selected compounds, an 8-point dose-response curve was obtained using 1:2 serial dilutions (starting from 0.01 μM, 0.1 μM, 0.4 μM or 5 μM, depending on the degree of inhibition observed during the primary screening). From the dose-response curves, half maximal effective concentration (EC50) could be calculated (see also below).
In more detail, compounds—typically dissolved in DMSO stock solutions—were diluted to 2× the final desired concentration in 100 μl of the above medium (without doxycycline) and plated in three replicates in the 96-well plates.
Simultaneously, HepAD38 cells—extensively pre-washed in doxycycline-free medium in order to induce HBV production—were suspended at 2*10^4 cells in 100 μl of doxycycline-free medium and added to each well of the plate, to yield a final assay volume of 200 μl.
DMSO, used for stock solutions and compounds dilutions, was always present in the assays at a final concentration of 0.5%.
Plates were then incubated 96 hours at 37° C. and then subjected to cell viability assays and extracellular HBV quantification, in order to evaluate both the cytotoxic potential and the antiviral activity of compounds.
Cytotoxicity was assessed by a commercial fluorescence assay that measures the metabolic activity of cells, directly related to cell viability (Cell Titer Blue, Promega). For each compound, cytotoxicity was evaluated at the same concentration employed to evaluate its anti-HBV activity. Anti-HBV activity was evaluated by quantification of extracellular HBV DNA with direct qPCR. In particular, supernatant was collected and centrifuged for cell debris clarification, viral DNA was extracted from virions by addition of lysis buffer (1 mM 1,4-dithiothreitol, 0.2% sodium dodecyl sulphate) and incubated at 95° C. for 10 min. Samples were then diluted 1:40 and real time PCR amplification was performed with SYBR green assay (Power SYBR™ Green PCR Master Mix-Thermo Fisher Scientific) and specific HBV primer (HBV-DF:5′-[…]-3′ (SEQ ID No. 1), HBV-DR:5′-[…]-3′ (SEQ ID No. 2)).
Antiviral activity data for each compound are reported as EC50 value (see Table 1 legend). Excel and Graphpad Prism programs are typically used for data elaboration and EC50 calculation.
(In qPCR the cycle at which signal appears reflects the starting amount.)
The EC50 is the concentration at which the effect is half-maximal. For `Cc1cc(NC(=O)c2c3c(cn2C)S(=O)(=O)NC2CN(C(=O)C(=O)N[C@H](C)C(F)(F)F)CCC2CO3)ccc1F` (mixture of isomers) [Example E66, Trans-N-(4-fluoro-3-methylphenyl)-2-methyl-7-(2-oxo-2-(((R)-1,1,1-trifluoropropan-2-yl)amino)acetyl)-5,5a,6,7,8,9,9a,10-octahydro-2H-pyrido[3,4-f]pyrrolo[3,4-b][1,4,5]oxathiazocine-1-carboxamide 4,4-dioxide], the EC50 was less than 500 nM. Same read-out and setting: as for `Cc1cc(NC(=O)c2c3c(cn2C)S(=O)(=O)NC2CN(C(=O)C(=O)NC4CC4)CCC2CO3)ccc1F` (racemic) [Example E67, Trans-7-(2-(cyclopropylamino)-2-oxoacetyl)-N-(4-fluoro-3-methylphenyl)-2-methyl-5,5a,6,7,8,9,9a,10-octahydro-2H-pyrido[3,4-f]pyrrolo[3,4-b][1,4,5]oxathiazocine-1-carboxamide 4,4-dioxide], the figure is less than 500 nM; as for `Cc1cc(NC(=O)c2c3c(cn2C)S(=O)(=O)NC2CN(C(=O)C(=O)NCC(F)(F)F)CCC2CO3)ccc1F` (racemic) [Example E68, Trans-N-(4-fluoro-3-methylphenyl)-2-methyl-7-(2-oxo-2-((2,2,2-trifluoroethyl)amino)acetyl)-5,5a,6,7,8,9,9a,10-octahydro-2H-pyrido[3,4-f]pyrrolo[3,4-b][1,4,5]oxathiazocine-1-carboxamide 4,4-dioxide], less than 500 nM.

Staying with this test, now noted: Hepatitis B virus, 96 hours, read-out: HBV inh EC50.
With `Cc1cc(NC(=O)c2c3c(cn2C)S(=O)(=O)NC2CCN(C(=O)C(=O)NC4CC4)CC2CO3)ccc1F` (racemic) [Example E54, Trans-8-(2-(cyclopropylamino)-2-oxoacetyl)-N-(4-fluoro-3-methylphenyl)-2-methyl-5,5a,6,7,8,9,9a,10-octahydro-2H-pyrido[4,3-f]pyrrolo[3,4-b][1,4,5]oxathiazocine-1-carboxamide 4,4-dioxide], the EC50 was less than 500 nM.

For `Cc1cc(NC(=O)c2c3c(cn2C)S(=O)(=O)NC2CCN(C(=O)C(=O)N4CC(F)(F)C4)CC2CO3)ccc1F` (racemic) [Example E55, Trans-8-(2-(3,3-difluoroazetidin-1-yl)-2-oxoacetyl)-N-(4-fluoro-3-methylphenyl)-2-methyl-5,5a,6,7,8,9,9a,10-octahydro-2H-pyrido[4,3-f]pyrrolo[3,4-b][1,4,5]oxathiazocine-1-carboxamide 4,4-dioxide], the EC50 is less than 500 nM.

As for `Cc1cc(NC(=O)c2c3c(cn2C)S(=O)(=O)NC2CCN(C(=O)C(=O)N[C@@H](C)C(F)(F)F)CC2CO3)ccc1F` (mixture of isomers) [Example E56, Trans-N-(4-fluoro-3-methylphenyl)-2-methyl-8-(2-oxo-2-(((S)-1,1,1-trifluoropropan-2-yl)amino)acetyl)-5,5a,6,7,8,9,9a,10-octahydro-2H-pyrido[4,3-f]pyrrolo[3,4-b][1,4,5]oxathiazocine-1-carboxamide 4,4-dioxide], the EC50 is less than 500 nM. Regarding `Cc1cc(NC(=O)c2c3c(cn2C)S(=O)(=O)NC2CCN(C(=O)C(=O)NCC(F)(F)F)CC2CO3)ccc1F` (racemic) [Example E57, Trans-N-(4-fluoro-3-methylphenyl)-2-methyl-8-(2-oxo-2-((2,2,2-trifluoroethyl)amino)acetyl)-5,5a,6,7,8,9,9a,10-octahydro-2H-pyrido[4,3-f]pyrrolo[3,4-b][1,4,5]oxathiazocine-1-carboxamide 4,4-dioxide], the EC50 was less than 500 nM. For the compound `Cc1cc(NC(=O)c2c3c(cn2C)S(=O)(=O)NC2CCN(C(=O)C(=O)NC(C)(C)C(F)(F)F)CC2CO3)ccc1F` (racemic) [Example E58, Trans-N-(4-fluoro-3-methylphenyl)-2-methyl-8-(2-oxo-2-((1,1,1-trifluoro-2-methylpropan-2-yl)amino)acetyl)-5,5a,6,7,8,9,9a,10-octahydro-2H-pyrido[4,3-f]pyrrolo[3,4-b][1,4,5]oxathiazocine-1-carboxamide 4,4-dioxide], the EC50 was less than 500 nM.

In the case of `Cc1cc(NC(=O)c2c3c(cn2C)S(=O)(=O)NC2CCN(C(=O)C(=O)N[C@H](C)C(F)(F)F)CC2CO3)ccc1F` (mixture of isomers) [Example E59, Trans-N-(4-fluoro-3-methylphenyl)-2-methyl-8-(2-oxo-2-(((R)-1,1,1-trifluoropropan-2-yl)amino)acetyl)-5,5a,6,7,8,9,9a,10-octahydro-2H-pyrido[4,3-f]pyrrolo[3,4-b][1,4,5]oxathiazocine-1-carboxamide 4,4-dioxide], the EC50 is less than 500 nM. Still for that read-out and setting: as for `Cc1cc(NC(=O)c2c3c(cn2C)S(=O)(=O)NC2CN(C(=O)C(=O)N[C@H](C)C(F)(F)F)CCC2CO3)ccc1F` (mixture of isomers) [Example E60, Cis-N-(4-fluoro-3-methylphenyl)-2-methyl-7-(2-oxo-2-(((R)-1,1,1-trifluoropropan-2-yl)amino)acetyl)-5,5a,6,7,8,9,9a,10-octahydro-2H-pyrido[3,4-f]pyrrolo[3,4-b][1,4,5]oxathiazocine-1-carboxamide 4,4-dioxide], the figure is less than 500 nM. The same measure, in the same setting: as for `Cc1cc(NC(=O)c2c3c(cn2C)S(=O)(=O)NC2CN(C(=O)C(=O)NCC(F)(F)F)CCC2CO3)ccc1F` (racemic) [Example E61, Cis-N-(4-fluoro-3-methylphenyl)-2-methyl-7-(2-oxo-2-((2,2,2-trifluoroethyl)amino)acetyl)-5,5a,6,7,8,9,9a,10-octahydro-2H-pyrido[3,4-f]pyrrolo[3,4-b][1,4,5]oxathiazocine-1-carboxamide 4,4-dioxide], the figure is less than 500 nM. Same read-out and setting: as for `Cc1cc(NC(=O)c2c3c(cn2C)S(=O)(=O)NC2CN(C(=O)C(=O)NC(C)(C)C(F)(F)F)CCC2CO3)ccc1F` (racemic) [Example E62, Cis-N-(4-fluoro-3-methylphenyl)-2-methyl-7-(2-oxo-2-((1,1,1-trifluoro-2-methylpropan-2-yl)amino)acetyl)-5,5a,6,7,8,9,9a,10-octahydro-2H-pyrido[3,4-f]pyrrolo[3,4-b][1,4,5]oxathiazocine-1-carboxamide 4,4-dioxide], the figure is less than 500 nM. For `Cc1cc(NC(=O)c2c3c(cn2C)S(=O)(=O)NC2CN(C(=O)C(=O)N4CC(F)(F)C4)CCC2CO3)ccc1F` (racemic) [Example E63, Cis-7-(2-(3,3-difluoroazetidin-1-yl)-2-oxoacetyl)-N-(4-fluoro-3-methylphenyl)-2-methyl-5,5a,6,7,8,9,9a,10-octahydro-2H-pyrido[3,4-f]pyrrolo[3,4-b][1,4,5]oxathiazocine-1-carboxamide 4,4-dioxide], the EC50 was less than 500 nM.

Regarding `Cc1cc(NC(=O)c2c3c(cn2C)S(=O)(=O)NC2CN(C(=O)C(=O)NC4CC4)CCC2CO3)ccc1F` (racemic) [Example E64, Cis-7-(2-(cyclopropylamino)-2-oxoacetyl)-N-(4-fluoro-3-methylphenyl)-2-methyl-5,5a,6,7,8,9,9a,10-octahydro-2H-pyrido[3,4-f]pyrrolo[3,4-b][1,4,5]oxathiazocine-1-carboxamide 4,4-dioxide], the EC50 is less than 500 nM. The same measure, in the same setting: as for `Cc1cc(NC(=O)c2c3c(cn2C)S(=O)(=O)NC2CN(C(=O)C(=O)N[C@@H](C)C(F)(F)F)CCC2CO3)ccc1F` (mixture of isomers) [Example E65, Cis-N-(4-fluoro-3-methylphenyl)-2-methyl-7-(2-oxo-2-(((S)-1,1,1-trifluoropropan-2-yl)amino)acetyl)-5,5a,6,7,8,9,9a,10-octahydro-2H-pyrido[3,4-f]pyrrolo[3,4-b][1,4,5]oxathiazocine-1-carboxamide 4,4-dioxide], the figure is less than 500 nM.
